Experimental data reported in paper PMC10385865, “Synthesis and Anticancer Activity of Novel Dual Inhibitors of Human Protein Kinases CK2 and PIM-1” (Pharmaceutics, 2023).
Where two headings read alike, the source gives them in different places.

Assays:
[1] = tested on: K-562 (chronic myelogenous leukemia); assay: MTT-based viability assay, K-562; assay type: cell-based, human; details: for IC50: Homo sapiens, read-out: IC50 K-562
Method: (§1) After incubation with the tested compounds, an MTT test was performed as described previously. Optical densities were measured at 570 nm using a BioTek microplate reader (BioTek Instruments, Inc., Winooski, VT, USA). All measurements were carried out in a minimum of three biological replicates.
(§2) . The IC50 values describing the half-maximal effective concentration of each tested compound were calculated and are summarized in Table 2. […].

[2] = tested on: K-562 cells; assay: Cell cycle progression by flow cytometry (PI), K-562; assay type: cell-based, human; details: for K-562 cells in S phase (maximum): K-562, 15 µM, 48 h; for cell cycle arrest (phase, in words): K-562, 48 h
Method: (§3) MCF-7, CCRF-CEM, and K-562 cells were cultured in 6-well plates and treated with the tested compounds for 48 h. After exposure to the compounds, the cells were collected and washed with cold PBS and fixed at −20 °C in 70% ethanol for at least 24 h. Subsequently, cells were washed in PBS and stained with 50 μg/mL PI (propidium iodide) and 100 μg/mL RNase solution in PBS supplemented with 0.1% v/v Triton X-100 for 30 min in the dark at RT. Cellular DNA content was determined by flow cytometry employing a BD FACSCanto II flow cytometer (BD Biosciences, San Jose, CA, USA). The obtained DNA histograms were analyzed using MacCycle software (Phoenix Flow Systems, San Diego, CA, USA) for evaluation of the distribution of the cells in different phases of the cell cycle.
(§4) Since CK2 controls cell cycle progression and, consequently, its inhibition can affect the distribution of cells in the individual phases of the cell cycle, we tested the cell cycle progression in CCRF-CEM, K-562, and MCF-7 cells after treatment with 4 and rac-6. Representative plots DNA histograms with the calculations of cell percentages in each phase of the cell cycle are depicted in Figure 7. […] Accumulation of cells in sub-G1 indicates DNA degradation, as often seen in apoptotic cells, confirming the results obtained with annexin V and PI staining.

[3] = biological target: T1, human CK2α (Homo sapiens, UniProt P68400); assay: P81 filter isotopic (radiometric) kinase assay, CK2 catalytic subunit; assay type: biochemical; details: substrate peptide […], Ki from IC50 by Cheng–Prusoff
T1 construct: made in house
Method: (§5) The obtained compounds were tested for their inhibitory activity toward human CK2α, human CK2 holoenzyme, and PIM-1 using a P81 filter isotopic assay as described previously. […] The experimental data were fitted to the sigmoidal dose–response equation, i.e., (variable slope) Y = Bottom + (Top-Bottom)/(1 + 10^((LogIC50−X)∗HillSlope), in GraphPad Prism (Prism 9, v. 9.0.1).
(§6) Inhibition of the human CK2 catalytic subunit (CK2α), CK2 holoenzyme (CK2α2β2), and PIM-1 by the newly obtained compounds was evaluated using a radiometric assay (Table 1, Figure S2). The synthetic peptide […] was used as the substrate of CK2, and peptide […] was used as the substrate of PIM-1. The values of the inhibition constant (Ki) were calculated using the Cheng–Prusoff equation: Ki = IC50/(1 + [S]/Km).

[4] = tested on: MCF-7 (breast carcinoma); assay: MTT-based viability assay, MCF-7; assay type: cell-based, human; details: for IC50: Homo sapiens, read-out: IC50 MCF-7
Method: as §1, §2

[5] = tested on: MCF-7 cells; assay: Annexin V/propidium iodide apoptosis, flow cytometry, MCF-7; details: for viability at 5 µM / viability at 10 µM: Homo sapiens, MCF7, 48 h, read-out: Viable; for Early apoptosis / Late apoptosis / Necrosis: mean±SD
Method: (§7) MCF-7 cells were seeded in 6-well plates at 1.2 × 10^5 cells/well, whereas CCRF-CEM and K-562 cells were seeded in 24-well plates at a density of 2 × 10^5/mL. Cells were treated with the tested compounds used in 5 µM and 10 µM concentrations. Then, the plates were incubated for 48 h. After exposure to the examined compounds, the cells were collected and centrifugated at 200× g at 4 °C for 5 min, washed twice in cold phosphate-buffered saline (PBS), and subsequently suspended in binding buffer at 1 × 10^6 cells/mL. Subsequently, 100-μL aliquots of the cell suspension were labeled according to the instructions of the respective manufacturer’s kit. Briefly, annexin V-fluorescein isothiocyanate and propidium iodide (BD Biosciences, Pharmingen, San Diego, CA, USA) were added to the cell suspension, and the mixture was vortexed, then incubated for 15 min at RT in the dark. A cold binding buffer (400 μL) was then added, and the cells were vortexed again and kept on ice. Flow cytometric measurements were performed within 1 h after labeling. Viable, necrotic, early, and late apoptotic cells were detected by flow cytometry using a BD FACSCanto II flow cytometer and analyzed using BD FACSDiva operating software (BD Biosciences, San Jose, CA, USA).

[6] = tested on: CCRF-CEM cells; assay: Mitochondrial membrane potential (ΔΨm) assay, JC-1, flow cytometry; assay type: cell-based, human; details: 10 µM, 48 h
Method: Mitochondrial membrane potential was assessed by flow cytometry using 5,5′,6,6′-tetrachloro-1,1′,3,3′-tetraethylbenzimidazolocarbocyanine iodide (JC-1; Sigma-Aldrich, St. Louis, MO, USA). JC-1 undergoes potential-dependent accumulation in mitochondria. In healthy cells, the dye accumulates in mitochondria, forming aggregates with red fluorescence (FL-2 channel), whereas in dead and apoptotic cells, the dye remains in the cytoplasm in a monomeric form and emits green fluorescence (FL-1 channel). Cells were harvested by centrifugation 48 h post treatment, suspended in 1 mL of complete culture medium at approximately 1 × 10^6 cells/mL, and incubated with 2.5 µL of JC-1 solution in DMSO (1 mg/mL) for 15 min at 37 °C in the dark. The stained cells were then washed with cold PBS, suspended in 400 µL of PBS, and examined by flow cytometry.
The most significant effect, i.e., 45% of cells with reduced ΔΨm, was obtained in cells treated with 10 µM conc. of rac-6.

[7] = tested on: CCRF-CEM cells; assay: Annexin V/propidium iodide apoptosis, flow cytometry, CCRF-CEM; details: 48 h; for Early apoptosis / Late apoptosis / Necrosis: mean±SD; for viability at 5 µM / viability at 10 µM: Homo sapiens, read-out: Viable
Method: as §7

[8] = biological target: T2, human CK2 holoenzyme (CK2α2β2) (Homo sapiens, UniProt P68400); assay: P81 filter isotopic (radiometric) kinase assay, CK2 holoenzyme; assay type: biochemical; details: substrate peptide […], Ki from IC50 by Cheng–Prusoff
T2 construct: made in house
Method: as §5, §6

[9] = tested on: CCRF-CEM cells; assay: Cell cycle progression by flow cytometry (PI), CCRF-CEM; assay type: cell-based, human; details: 48 h
Method: as §3, §4

T2 sequence (P68400 whole entry): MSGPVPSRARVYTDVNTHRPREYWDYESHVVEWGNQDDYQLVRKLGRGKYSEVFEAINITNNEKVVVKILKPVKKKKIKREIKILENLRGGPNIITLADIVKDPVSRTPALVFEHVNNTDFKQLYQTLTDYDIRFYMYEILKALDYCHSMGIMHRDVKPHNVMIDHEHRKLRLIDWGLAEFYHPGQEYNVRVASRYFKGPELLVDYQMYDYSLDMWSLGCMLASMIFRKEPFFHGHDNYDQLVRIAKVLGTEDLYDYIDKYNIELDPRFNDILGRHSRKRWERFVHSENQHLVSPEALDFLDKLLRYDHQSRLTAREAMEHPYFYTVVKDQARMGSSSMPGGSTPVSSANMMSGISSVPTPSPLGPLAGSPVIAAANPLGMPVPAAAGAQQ
T2 sequence (P67870 whole entry partner): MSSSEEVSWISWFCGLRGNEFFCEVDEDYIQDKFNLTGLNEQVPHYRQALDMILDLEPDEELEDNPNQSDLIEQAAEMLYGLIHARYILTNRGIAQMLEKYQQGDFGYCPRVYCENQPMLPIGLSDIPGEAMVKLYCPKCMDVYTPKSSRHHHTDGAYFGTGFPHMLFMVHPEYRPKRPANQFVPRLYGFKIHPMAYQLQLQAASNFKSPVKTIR
T1 sequence (P68400 whole entry): as the sequence (P68400 whole entry) above

Row | Structure (SMILES) | K-562 cells in S phase (maximum) [2] [%] | cell cycle arrest (phase, in words) [2] | viability at 5 µM [5] [%] | viability at 10 µM [5] [%] | Early apoptosis ([5]; MCF-7, 5 µM, 48 h) [%] | Late apoptosis ([5]; MCF-7, 5 µM, 48 h) [%] | Necrosis ([5]; MCF-7, 5 µM, 48 h) [%] | Early apoptosis ([5]; MCF-7, 10 µM, 48 h) [%] | Late apoptosis ([5]; MCF-7, 10 µM, 48 h) [%] | Necrosis ([5]; MCF-7, 10 µM, 48 h) [%] | Early apoptosis ([7]; 5 µM) [%] | Late apoptosis ([7]; 5 µM) [%] | Necrosis ([7]; 5 µM) [%] | Early apoptosis ([7]; 10 µM) [%] | Late apoptosis ([7]; 10 µM) [%] | Necrosis ([7]; 10 µM) [%] | viability at 5 µM [7] [%] | viability at 10 µM [7] [%] | cell cycle arrest (phase, in words) [9] | further results
1 | OC(CNc1nc2c(Br)c(Br)c(Br)c(Br)c2[nH]1)C(F)(F)F (racemic) [rac-6, 1,1,1-Trifluoro-3-[(4,5,6,7-tetrabromo-1H-benzimidazol-2-yl)amino]propan-2-ol] | 56.1 | S-phase arrest | 79 ± 1.94 | 69.1 ± 13.1 | 1.18±1.08 | 10.96±1.63 | 8.94±1.14 | 3.53±5.45 | 19.05±7.40 | 8.28±1.69 | 2.75±0.07 | 18.85±3.61 | 2.45±0.07 | 2.30±0.42 | 44.05±4.03 | 5.00±1.41 | 76 ± 3.75 | 48.6 ± 2.26 | G1-phase arrest | IC50 ([1]; K562, MTT, 48 h): 17.7 ± 3.54 µM; SI (selectivity index) K-562 ([1]; IC50 Vero/IC50 cancer cells): 1.15; Ki [3]: 0.294 µM; IC50 ([4]; MCF7, MTT, 48 h): 9.66 ± 0.31 µM; SI (selectivity index) MCF-7 ([4]; IC50 Vero/IC50 cancer cells): 2.11; induction of apoptosis (in words) ([5]; MCF-7, 10 µM, 48 h, statistically significant result): induced apoptosis; cells with reduced ΔΨm [6]: 45%; cells in early and late apoptosis ([7]; 10 µM): 47%; Ki [8]: 0.112 µM; leukemia cells accumulated in G1 phase (maximum) ([9]; 10 µM): 49%
2 | CN(C)c1nc2c(Br)c(Br)c(Br)c(Br)c2[nH]1 [Compound 4, 4,5,6,7-Tetrabromo-N,N-dimethyl-1H-benzimidazol-2-amine, reference compound] | 57.7 | S-phase arrest | 79 ± 2.76 | 70.3 ± 3.36 | 0.98±0.62 | 8.44±1.47 | 11.62±2.01 | 1.80±1.31 | 15.94±3.58 | 11.96±2.46 | 1.65±0.78 | 13.55±0.35 | 1.45±0.07 | 1.55±0.07 | 16.75±0.21 | 1.35±0.49 | 83.3 ± 0.57 | 80.35 ± 0.78 | S-phase arrest | IC50 ([1]; K562, 48 h): 22.5 ± 6.09 µM; IC50 ([4]; MCF7, 48 h): 14.7 ± 0.27 µM
